According to US8084399B2, “Process for screening of a binding amphiphilic peptides specific for hairpin RNA” (priority 2009, dated 2011):
Where no end group is shown, it is not given here. [ ]: non-standard residue; d: D form. Orn = NCCC[C@H](N)C(=O)O; Dab = NCC[C@H](N)C(=O)O; Dap = NC[C@H](N)C(=O)O

Tests used:
[1] = target: TAR hairpin RNA; test: Fluorescence anisotropy competition with Rev-N-rhodamine probe, binding to TAR hairpin RNA; set-up: species or system HIV; conditions: for Kd: fluorescence anisotropy, 20° C., pH 7.4, read-out: Dissociation constant, TAR
Method: (§1) Binding force to each target hairpin RNA (IRES, RRE, TAR and 16S A-site) was measured by fluorescence polarization using alanine scanned peptide library (1b-1h).
(§2) Particularly, […] of each target RNA was prepared at the concentration of 10 mM, which stood at 65° C. for 10 minutes and then cooled down slowly at room temperature, leading to folding. The amphiphilic peptide was prepared respectively at the concentration of […], which were maintained at 0° C. As a probe, rev peptide labeled with rhodamine (Rev-N-rhodamine) emitting […] fluorescence was prepared at the concentration of 10 mM. Buffer was composed of 140 mM NaCl, 5 mM KCl, 1 mM MgCl2, and 20 mM HEPES (N-2-Hydroxyethylpiperazine-N′-2-Ethanesulfonic Acid, pH 7.4). Fluorescence Anisotropy was measured using AMINCO-Bowman Series Luminescence Spectrometer at 20° C. Ten nM of the probe was added in […] of buffer, to which target RNA was added to induce interaction between the probe and the target RNA. At that time, anisotropy value increased. Then, the synthesized peptide competing with the probe for binding site was added thereto with increasing the concentration slowly. Changes of fluorescence polarization were measured until fluorescence polarization reached as low as the beginning. Considering the concentration and amount of the peptide added, binding force to target RNA was calculated. That is, the binding strength between target RNA and peptide was determined according to the following KaleidaGraph. [Peptide]=Kd(Amax−A)/[Kd(A−A0)+1]×[RNA]−Kd(A−A0)^2[Probe]0/(Amax−A)(Amax−A0)
(§3) Herein, [Peptide] indicates the concentration of peptide, [RNA] indicates the concentration of target RNA, and [Probe]0 indicates the concentration of probe. A is the value of fluorescence anisotropy of sample, Amax is the value of totally bound tracer, and A0 is the value of totally free tracer.

[2] = target: RRE hairpin RNA; test: Fluorescence anisotropy competition with Rev-N-rhodamine probe, binding to RRE hairpin RNA; set-up: species or system HIV; conditions: 20° C., pH 7.4, read-out: Dissociation constant, RRE
Method: as §1, §2, §3

[3] = target: 16S ribosomal RNA A-site; test: Fluorescence anisotropy competition with Rev-N-rhodamine probe, binding to 16S A-site; conditions: 20° C., pH 7.4, read-out: Dissociation constant, 16S A-site
Method: as §1, §2, §3

[4] = test system: IRES domain IV hairpin; test: Fluorescence anisotropy competition with Rev-N-rhodamine probe, binding to IRES hairpin; set-up: species or system HCV; conditions: for differentiation coefficient (IRES): (mean Kd to other hairpin RNA)/(Kd to one hairpin RNA); for Kd: fluorescence anisotropy, 20° C., pH 7.4, read-out: Dissociation constant, IRES; for binding strength to IRES, in words: compared with the original peptide
Method: as §1, §2, §3

[5] = Circular dichroism (CD), percentage of alpha-helix; type: physicochemical; conditions: CD at 20° C., condition not given; for Alpha-helical rate (%), second value of pair: value after the slash; for Alpha-helical rate (%), first value of pair: value before the slash
Method: To investigate alpha-helix of the amphiphilic peptide (1a-1h), circular dichroism (CD) was performed. Particularly, CD was measured at 20° C. by using JASCO model J715 spectropolarimeter. Scanning was performed at 190-250 nm three times (bandwidth: 1 nm, datapitch: 0.5 nm, speed: 100 nm/min), which were averaged to obtain CD data. Spectrum was corrected by measuring background spectrum. CD signal was recorded after modulating thereof with mean residue ellipticity [Q]. Percentage (%) of alpha-helix(fn) was calculated by the following formula. [Q]=Qobs[MRW/(10lc)]
MRW=mean residue weight (dividing molecular weight by the number of peptide bond, l=pathway length (cm), c=concentration (mg/mL). fn=([Q]222−[Q]coil)/([Q]helix−[Q]coil) [Q]helix=−40,000[…]+100t [Q]coil=640−45t
[Q]222=mean residue ellipticity at 222 nm (deg cm2 mol-1), [Q]helix=ellipticity of peptide having complete helical structure, [Q]coil=ellipticity of peptide having complete random coil structure, n=number of amino acid, t=° C.

Substance | Kd [1] [nM] | Kd [2] [nM] | Kd [3] [nM] | differentiation coefficient (IRES) [4] | Kd [4] [nM] | Alpha-helical rate (%), second value of pair [5] [%] | Alpha-helical rate (%), first value of pair [5] [%] | binding strength to IRES, in words [4] | binding strength to TAR, in words ([1]; compared with the original peptide)
LKKLLKLLOrnKLLKLAG (LKKLLKLL[Orn]KLLKLAG-NH2; N-terminus assumed; SMILES CC(C)C[C@H](NC(=O)[C@H](CCCCN)NC(=O)[C@H](CC(C)C)NC(=O)[C@H](CC(C)C)NC(=O)[C@H](CCCCN)NC(=O)[C@H](CCCN)NC(=O)[C@H](CC(C)C)NC(=O)[C@H](CC(C)C)NC(=O)[C@H](CCCCN)NC(=O)[C@H](CC(C)C)NC(=O)[C@H](CC(C)C)NC(=O)[C@H](CCCCN)NC(=O)[C@H](CCCCN)NC(=O)[C@@H](N)CC(C)C)C(=O)N[C@@H](C)C(=O)NCC(N)=O) [2d, second generation peptide, hydrophilic face modified] | 9.8 | 7.6 | 18 | 8.7 | 1.3 | 57 | 28 |  | 
LKKLLKLLKKLLOrnLAG (LKKLLKLLKKLL[Orn]LAG-NH2; N-terminus assumed; SMILES CC(C)C[C@H](NC(=O)[C@H](CCCN)NC(=O)[C@H](CC(C)C)NC(=O)[C@H](CC(C)C)NC(=O)[C@H](CCCCN)NC(=O)[C@H](CCCCN)NC(=O)[C@H](CC(C)C)NC(=O)[C@H](CC(C)C)NC(=O)[C@H](CCCCN)NC(=O)[C@H](CC(C)C)NC(=O)[C@H](CC(C)C)NC(=O)[C@H](CCCCN)NC(=O)[C@H](CCCCN)NC(=O)[C@@H](N)CC(C)C)C(=O)N[C@@H](C)C(=O)NCC(N)=O) [2g, second generation peptide, hydrophilic face modified] | 9 | 11 | 23 | 3.3 | 4.4 | 53 | 36 |  | 
LKKLLDabLLKKLLKWAG (LKKLL[Dab]LLKKLLKWAG-NH2; N-terminus assumed; SMILES CC(C)C[C@H](NC(=O)[C@H](CC(C)C)NC(=O)[C@H](CCCCN)NC(=O)[C@H](CCCCN)NC(=O)[C@H](CC(C)C)NC(=O)[C@H](CC(C)C)NC(=O)[C@H](CCN)NC(=O)[C@H](CC(C)C)NC(=O)[C@H](CC(C)C)NC(=O)[C@H](CCCCN)NC(=O)[C@H](CCCCN)NC(=O)[C@@H](N)CC(C)C)C(=O)N[C@@H](CCCCN)C(=O)N[C@@H](Cc1c[nH]c2ccccc12)C(=O)N[C@@H](C)C(=O)NCC(N)=O) [3e, third generation peptide, both faces modified] | 14 | 22 | 16 | 28 | 0.62 | 45 | 39 |  | 
LKKLLKLLKKLLKLAG [1h, alanine scanned first generation peptide] | 63 | 25 | 53 | 0.96 | 49 | 43 | 9 |  | 
LKKLLDapLLKKLLKLAG (LKKLL[Dap]LLKKLLKLAG-NH2; N-terminus assumed; SMILES CC(C)C[C@H](NC(=O)[C@H](CCCCN)NC(=O)[C@H](CC(C)C)NC(=O)[C@H](CC(C)C)NC(=O)[C@H](CCCCN)NC(=O)[C@H](CCCCN)NC(=O)[C@H](CC(C)C)NC(=O)[C@H](CC(C)C)NC(=O)[C@H](CN)NC(=O)[C@H](CC(C)C)NC(=O)[C@H](CC(C)C)NC(=O)[C@H](CCCCN)NC(=O)[C@H](CCCCN)NC(=O)[C@@H](N)CC(C)C)C(=O)N[C@@H](C)C(=O)NCC(N)=O) [2c, second generation peptide, hydrophilic face modified] | 5.7 | 9.6 | 12 | 2.4 | 3.8 | 61 | 26 |  | 
LKKLLKLLKKLLDapWAG (LKKLLKLLKKLL[Dap]WAG-NH2; N-terminus assumed; SMILES CC(C)C[C@H](NC(=O)[C@H](CC(C)C)NC(=O)[C@H](CCCCN)NC(=O)[C@H](CCCCN)NC(=O)[C@H](CC(C)C)NC(=O)[C@H](CC(C)C)NC(=O)[C@H](CCCCN)NC(=O)[C@H](CC(C)C)NC(=O)[C@H](CC(C)C)NC(=O)[C@H](CCCCN)NC(=O)[C@H](CCCCN)NC(=O)[C@@H](N)CC(C)C)C(=O)N[C@@H](CN)C(=O)N[C@@H](Cc1c[nH]c2ccccc12)C(=O)N[C@@H](C)C(=O)NCC(N)=O) [3g, third generation peptide, both faces modified] | 5.9 | 11 | 17 | 9.4 | 1.2 | 63 | 41 |  | 
WKKLLKLLKKLLKLAG [2n, tryptophan scanned second generation peptide] | 2 | 2.5 | 0.76 | 2.4 | 0.74 | 65 | 48 | significantly increased | 
LKKLLDabLLKKLLKLAG (LKKLL[Dab]LLKKLLKLAG-NH2; N-terminus assumed; SMILES CC(C)C[C@H](NC(=O)[C@H](CCCCN)NC(=O)[C@H](CC(C)C)NC(=O)[C@H](CC(C)C)NC(=O)[C@H](CCCCN)NC(=O)[C@H](CCCCN)NC(=O)[C@H](CC(C)C)NC(=O)[C@H](CC(C)C)NC(=O)[C@H](CCN)NC(=O)[C@H](CC(C)C)NC(=O)[C@H](CC(C)C)NC(=O)[C@H](CCCCN)NC(=O)[C@H](CCCCN)NC(=O)[C@@H](N)CC(C)C)C(=O)N[C@@H](C)C(=O)NCC(N)=O) [2b, second generation peptide, hydrophilic face modified] | 7.3 | 10 | 13 | 6.4 | 1.6 | 63 | 23 |  | 
LKKLLKLLKKLLKLKG [1a, original amphiphilic 16-mer peptide] | 66 | 22 | 100 | 1.4 | 45 | 57 | 26 |  | 
LKKLLKLLKALLKLKG [1f, alanine scanned first generation peptide] | 25 | 92 | 64 | 1.8 | 33 | 45 | 17 |  | 
LKKLLKWLOrnKLLKLAG (LKKLLKWL[Orn]KLLKLAG-NH2; N-terminus assumed; SMILES CC(C)C[C@H](NC(=O)[C@H](CCCCN)NC(=O)[C@H](CC(C)C)NC(=O)[C@H](CC(C)C)NC(=O)[C@H](CCCCN)NC(=O)[C@H](CCCN)NC(=O)[C@H](CC(C)C)NC(=O)[C@H](Cc1c[nH]c2ccccc12)NC(=O)[C@H](CCCCN)NC(=O)[C@H](CC(C)C)NC(=O)[C@H](CC(C)C)NC(=O)[C@H](CCCCN)NC(=O)[C@H](CCCCN)NC(=O)[C@@H](N)CC(C)C)C(=O)N[C@@H](C)C(=O)NCC(N)=O) [3b, third generation peptide, both faces modified] | 22 | 18 | 24 | 4.2 | 5.1 | 52 | 34 |  | 
LKKLLALLKKLLKLKG [peptide 1d, alanine scanned first generation peptide] | 150 | 150 | 160 | 1.0 | 150 | 47 | 12 | reduced binding strength | three fold binding strength
